Each structure is given as a SMILES string.

For two compounds, Activity results are on record in ChEMBL document CHEMBL1143848, “Tetracycline resistance in group a streptococci: emergence on a global scale and influence on multiple-drug resistance” (2007).

This assay concerns Streptococcus. Put plainly: Antimicrobial activity against group A streptococci assessed as percent resistant isolates by Etest. Format: functional.

As to `CC[C@H]1OC(=O)[C@H](C)[C@@H](O[C@H]2C[C@@](C)(OC)[C@@H](O)[C@H](C)O2)[C@H](C)[C@@H](O[C@@H]2O[C@H](C)C[C@H](N(C)C)[C@H]2O)[C@](C)(O)C[C@@H](C)C(=O)[C@H](C)[C@@H](O)[C@]1(C)O` [ERYTHROMYCIN], the Activity was 25%.
To `CN(C)[C@@H]1C(O)=C(C(N)=O)C(=O)[C@@]2(O)C(O)=C3C(=O)c4c(O)cccc4[C@@](C)(O)[C@H]3C[C@@H]12` [TETRACYCLINE] belongs 38%.
